Where two headings read alike, the source gives them in different places.
Key:
[1] = system: fetal globin mRNA (human erythroleukemia cells); test: Fetal globin mRNA in erythroleukemia cells (primer extension); type: cell-based; details: for Gamma/Alpha: untreated 0.46; for activation at 1000 µM: Homo sapiens, 96 h, read-out: Gamma Globin mRNA (increase)
Experimental: Compounds were tested for increased expression of the human globin genes in human erythroid cells. In addition, as the cell line being tested is a tumor cell line, the assay determines if differentiation, a growth inhibitory effect on cancer cells, is induced by the compounds tested. Human erythroleukemia cells were cultured in RPMI media with 10% fetal calf serum alone or with treatment with various compounds for 4 days. Globin MRNA was quantitated by primer extension analysis. Fetal globin mRNA was compared to the amount of fetal globin mRNA produced in untreated cells during the same culture period. The quantitation was expressed as a percent of alpha globin MRNA which was constant. Results are expressed proportional to α-globin mRNA (Table 3).

[2] = system: γ-globin gene promoter; test: In vivo footprinting of the γ-globin promoter; design: species or system human
Experimental: To determine whether this increase was due to the transcriptional modulation of the γ-globin genes and, if so, to examine whether protein-DNA interactions of regulatory sequences for γ-globin gene expression have been changed, in vivo footprinting analysis of the γ-globin gene promoter and HSS-II region of the locus control region (LCR) were performed. […] Compared to conventional in vitro footprinting methods, which are ordinarily employed to analyze protein-DNA interactions for promoter regions and fail to disclose tissue-specific binding of nuclear proteins to cis-acting elements, in vivo footprinting technique is able to provide bona fide information on transcription factors binding to cis-acting elements that reflects in vivo situations.
(§1) Erythroid cell-rich fractions were prepared from patients' peripheral blood or bone marrow before and during treatment, and were in vivo methylated using DMS. Ligation-mediated polymerase chain reaction (LM-PCR) was performed (J. L. Mueller et al., Sci. 246:780-86, 1989). Briefly, 3-7 μg of DNA was suspended in 15 μl of solution A (40 mM Tris-HCl, pH 7.7, 50 mM NaCl) containing […] of primer. First-strand synthesis was performed by adding 7.5 μl of solution B (20 mM MgCl2, 20 mM DTT, 60 μM dNTP) and 1.5 μl of 1:4 diluted Sequenase version 2.0 (United States Biochemical; Cleveland, Ohio) with TE and incubating at 50° C. for 10 minutes. The reaction was quenched by heating at 68° C. for 10 minutes, adding 6 μl of 310 mM Tris-HCl, pH 7.7, and subsequently extracting with phenol/chloroform/isoamyl alcohol (25:24:1) and with ether. […] All of the footprints were analyzed two or more times to ensure reproducibility.
In the γ-globin gene promoter, a DNA fragment extending up to -200 bp relative to the transcription start site is sufficient to direct efficient transcription of the γ-globin genes (K. T. McDonagh et al., J. Biol. Chem. 266:11965-74, 1991; M. J. Urich Blood 75:990-99, 1990). […] Erythroblasts from a patient with sickle cell anemia, before and after butyrate treatment were analyzed. […]

[3] = system: HSS-II region of the locus control region (LCR); test: In vivo footprinting of HSS-II; design: species or system human
Experimental: as §1
Several lines of evidence obtained from DNA transfection and transgenic experiments have corroborated the functional importance of HSS-II of the LCR in regulating β-like globin gene expression. […] In view of these observations, the patterns of in vivo footprints of HSS-II in erythroid cell preparations that were obtained from pre-treatment and post-treatment blood samples were analyzed. […]

[4] = system: γ-globin promoter fragment containing FRE-γ1; test: Gel mobility shift assay with FRE-γ1 promoter fragment; design: species or system human
[5] = system: γ-globin mRNA; details: patients with globin disorders; cited from earlier work
[6] = system: hemoglobin polymerization; details: artificially deoxygenated blood; cited from earlier work
[7] = erythroblast nuclear extracts of thalassemic patients (FIG. 17)

| SMILES | induction of fetal globin mRNA [1] | Gamma/Alpha ([1]; 1.0 mM, 4 days) | activation at 1000 µM ([1]; 1.0 mM, 4 days) [%] | footprints in the γ-globin promoter ([2]; erythroblasts of a sickle cell anemia patient, post-treatment (FIG. 13)) | induction of transcription factors interacting with the γ-globin gene promoter ([2]; sickle cell anemia patient) | degree of protection on G residues in FRE-γ1 ([2]; β-thalassemia and sickle cell anemia patients (FIG. 14)) | footprints over HSS-II ([3]; erythroblasts of treated sickle cell patient (FIG. 15)) | region of new protection upstream of the GATA-1 binding sequence ([3]; treated patients (FIG. 15)) | new binding activity (activator) [4, 7] | other binding activity (repressor) [4, 7] | activator and repressor bands in non-responder ([4]; patient with sickle cell anemia who did not respond) | levels of γ-globin mRNA [5] | activation at 1000 µM [1] [%] | inhibition of polymerization [6] |
| --- | --- | --- | --- | --- | --- | --- | --- | --- | --- | --- | --- | --- | --- | --- |
| CCCC(=O)O [AB, arginine butyrate] | significantly increased the induction of fetal globin MRNA | 0.66 | 20 | four major footprints in the fetal response elements | induces multiple transcription factors which interact with the γ-globin gene promoter, resulting in activation | consistently increased | novel in vivo footprints that were not seen in a pre-treatment sample became apparent | about 40 bp | a new binding activity appeared | disappeared | no increase in the intensity of the activator band or loss of the repressor band | increase in response to butyrate treatment |  |  |
| O=C(O)COc1ccccc1 [PAA, Phenoxyacetic acid] | significantly increased the induction of fetal globin MRNA | 0.70 |  |  |  |  |  |  |  |  |  |  | 24 | inhibit polymerization |
